Experimental data as given in PubChem BioAssay AID1259407 (Chemical Carcinogenesis Research Information System (CCRIS), 2018).
Active and inactive are the calls of the source. No rule for the calls is given here.

System: CCRIS mutagenicity, Ames/micronucleus/aberration tests
Assay: CCRIS mutagenicity studies
Settings: Test System: AMES SALMONELLA TYPHIMURIUM
[1] = Strain/Indicator: TA98, Metabolic Activation: NONE, Method: STANDARD PLATE
[2] = Strain/Indicator: TA100, Metabolic Activation: NONE, Method: STANDARD PLATE
[3] = Strain/Indicator: TA1538, Metabolic Activation: NONE, Method: STANDARD PLATE
[4] = Strain/Indicator: TA98, Metabolic Activation: RAT, LIVER, S-9, AROCLOR 1254, Method: STANDARD PLATE
[5] = Strain/Indicator: TA100, Metabolic Activation: RAT, LIVER, S-9, AROCLOR 1254, Method: STANDARD PLATE

Nc1cc(-c2ccncc2)c[nH]c1=O
mutagenic call (Strain/Indicator: TA97, Metabolic Activation: NONE): inactive; negative
mutagenic call (Strain/Indicator: TA97, Metabolic Activation: S-9): inactive; negative
mutagenic call (Strain/Indicator: TA98, Metabolic Activation: NONE): inactive; negative
mutagenic call [1]: inactive; negative
mutagenic call (Strain/Indicator: TA98, Metabolic Activation: RAT, LIVER, S-9, Method: STANDARD PLATE): inactive; negative
mutagenic call (Strain/Indicator: TA98, Metabolic Activation: S-9): inactive; negative
mutagenic call [2]: inactive; negative
mutagenic call (Strain/Indicator: TA100, Metabolic Activation: RAT, LIVER, S-9, Method: STANDARD PLATE): inactive; negative
mutagenic call (Strain/Indicator: TA100, Metabolic Activation: S-9): inactive; negative
mutagenic call (Strain/Indicator: TA102, Metabolic Activation: NONE): inactive; negative
mutagenic call (Strain/Indicator: TA102, Metabolic Activation: S-9): inactive; negative
mutagenic call (Strain/Indicator: TA1535, Metabolic Activation: NONE, Method: STANDARD PLATE): inactive; negative
mutagenic call (Strain/Indicator: TA1535, Metabolic Activation: RAT, LIVER, S-9, Method: STANDARD PLATE): inactive; negative
mutagenic call (Strain/Indicator: TA1537, Metabolic Activation: NONE, Method: STANDARD PLATE): inactive; negative
mutagenic call (Strain/Indicator: TA1537, Metabolic Activation: RAT, LIVER, S-9, Method: STANDARD PLATE): inactive; negative
mutagenic call [3]: inactive; negative
mutagenic call (Strain/Indicator: TA1538, Metabolic Activation: RAT, LIVER, S-9, Method: STANDARD PLATE): inactive; negative

O=C/C(=C(\Cl)C(=O)O)C(Cl)Cl
mutagenic call (Strain/Indicator: TA97, Metabolic Activation: NONE, Method: STANDARD PLATE): inactive; negative
mutagenic call (Strain/Indicator: TA97, Metabolic Activation: RAT, LIVER, S-9, PHENOBARBITAL, Method: STANDARD PLATE): inactive; negative
mutagenic call [1]: inactive; negative
mutagenic call (Strain/Indicator: TA98, Metabolic Activation: RAT, LIVER, S-9, PHENOBARBITAL, Method: STANDARD PLATE): inactive; negative
mutagenic call [2]: active; positive
mutagenic call (Strain/Indicator: TA100, Metabolic Activation: RAT, LIVER, S-9, PHENOBARBITAL, Method: STANDARD PLATE): inactive; negative

O=C(/C=C/c1ccccc1)c1ccc(Br)cc1
mutagenic call [1]: inactive; negative
mutagenic call [4]: inactive; negative
mutagenic call [2]: inactive; negative
mutagenic call [5]: inactive; negative

CCCOc1cc(N=Nc2ccc(N(CCO)CCO)cc2)ccc1N=Nc1c(S(=O)(=O)O)cc2ccc(N)cc2c1O
mutagenic call [1]: inactive; negative
mutagenic call [4]: active; positive
mutagenic call [2]: inactive; negative
mutagenic call [5]: inactive; negative
mutagenic call [3]: inactive; negative
mutagenic call (Strain/Indicator: TA1538, Metabolic Activation: RAT, LIVER, S-9, AROCLOR 1254, Method: STANDARD PLATE): active; positive
